According to patent US20050197286A1, “Method for control of depression using c terminal growth hormone (gh) fragment” (priority 2002, published 2005):
Entries after “also recorded” stand apart in the source; their conditions may differ.

How the values were obtained:
[1] = tested on: patients suffering from growth hormone deficiency; details: several studies, references 1-24; cited from earlier work
[2] = tested on: obese adult male subjects; assay: Double-blind single oral dose study of AOD9604 (Example 2, Phase 2A); type: in vivo, human
Source text: The objective of this study was to characterise the safety, tolerability, pharmacodynamic and pharmacokinetic effects of AOD9604 following single oral administration to obese adult male subjects.
The study was a double-blind, placebo controlled, 4×4 Williams Latin Square design, single oral dose study, planned to include 16 subjects. Each subject received active study drug on each of three occasions and placebo on one occasion. There was a washout period of 14 days between the doses administered in each study period.
Eligibility criteria were the same as for Example 1, except that the age range of the subjects was 35 to 60 years of age inclusive.
There were four study treatments, and each subject received each of the four treatments on four separate occasions, separated by a fourteen day wash out period. The dose strengths were as follows: • 10 mg (76.9 μg/kg for 130 kg subject); • 30 mg (230.8 μg/kg for 130 kg subject); • 60 mg (461.5 μg/kg for 130 kg subject); and • placebo.
The active pharmaceutical formulation was Size-0 capsules (Shionogi Qualicaps Co. Ltd.) of 10 mg AOD9604 containing 3.9% AOD9604, 84.1% Mannitol (USP) and 12% PEG3350, USP. Placebo capsules contained excipients only.
For each treatment, capsules were administered orally with 240 mL of room temperature water following at least a 12 hour overnight fast. Study personnel inspected the oral cavity to confirm that the subject has ingested the study treatment following each dose.
In the Phase 2A single dose intravenous trial, reported in Example 1, mild euphoria was reported by several patients who received drug and none who received placebo. The patients taking part in this single dose oral treatment were therefore asked to complete the Nottingham Health Profile questionnaire (see Wiklund I. (1990) The Nottingham Health Profile—a measure of health-related quality of life. Scand. J. Prim. Health Care Suppl. 1:15-8) before dose and 7 days after dose.

[3] = tested on: healthy lean males; type: in vivo, human
Procedure: The selection of 25, 50 and 100 μg/kg doses of AOD9604 used in this study was based on the results from a previous Phase I study, conducted from February-June 2001, in healthy lean males using a dose range of 25-400 μg/kg AOD9604.

[4] = tested on: obese adult male subjects; assay: Double-blind multiple oral dose escalation study of AOD9604 (Example 3, Phase 2A); type: in vivo, human
Source text: The objective of this study was to characterise the safety and tolerability and the pharmacodynamic profile of AOD9604 following multiple oral administration to obese adult male subjects.
This was a double-blind, placebo-controlled, 3 period, oral dose, dose escalation study with randomization directed such that each subject received 7 doses of active study drug or placebo over one 7-day period, i.e. one dose per day for 7 days. There were up to three dose levels of AOD9604 and placebo studied in 3 cohorts of 12 subjects each. In each study period, 12 subjects were randomised so that 9 received active study drug and 3 received placebo. There was a period of 7 days between study periods to allow for appropriate safety review and permission to progress to the next dose level.
The eligibility criteria of subjects were as for Example 2, except that the age range was 18 to 60 years of age, and the BMI threshold was ≧30 kg/m^2, since the primary aim of the study was safety assessment. The restrictions on the subjects and the conduct of the study again were generally as in Example 2.
There were three study periods, and the dose strengths used were 10 mg, 30 mg, 60 mg and placebo, with seven doses per study period. The formulation of AOD9604 and placebo were as for Example 2.
For each treatment, capsules were administered orally every day for 7 days with 240 mL of room temperature water following at least a 12 hour overnight fast.
The patients were asked to complete the SF-36 Quality of Life Questionnaire (Ware J. J. and Sherbourne C. D. (1992) The MOS 36-item short-form health survey (SF-36). I. Conceptual framework and item selection. Medical Care; 30:473-83) at days 0, 8 and 14. The results are illustrated in FIG. 2, A and B and FIG. 3, A and B. The SF-36 questionnaire is different to the questionnaire used in the Phase 2A […] single dose trial of Example 2. SF-36 provides only positive numerical values for mood assessment, with higher values indicating greater happiness, and lower values indicating lower happiness. (The graphs in FIGS. 2 and 3 however do have some negative values because they are representing the change in mood from pre-treatment.) FIGS. 2 and 3 show a similar bell-shaped dose response on mood as that observed in Example 1 (only it is a reversed bell-shape in comparison to Example 1). […] There was an improvement in the mental aggregate scores, relative to placebo, at the 10 mg dose on day 8, and a worsening at the 30 mg and 60 mg doses relative to placebo.

[5] = tested on: obese adult male subjects; assay: Double-blind, placebo-controlled single intravenous dose study of AOD9604 (Example 1); type: in vivo, human
Procedure: The objective of this study was to characterise the safety, tolerability and pharmacodynamic effects of AOD9604 following single intravenous administration to obese adult male subjects. The study was performed by CMAX Pty Ltd under contract to Metabolic Pharmaceuticals Ltd.
The study was designed as a double-blind, placebo-controlled, 4×4 Williams Latin Square design, intravenous dose study included twenty four (obese Body mass index (BMI) of ≧35 kg/m^2 and a waist circumference of ≧110 cm) adult subjects with each subject receiving active study drug on each of three occasions and placebo on one occasion. Treatment allocation was randomised according to a Master Randomisation Schedule.
Subjects who provided written informed consent and who met all inclusion/exclusion criteria were randomised to receive each of the four treatments according to the study Master Randomisation Schedule. The subjects were randomised to receive a single dose of 25, 50 and 100 μg/kg AOD9604 and a single dose of placebo (5% mannitol solution) over the four periods of the study. Dose administration was by intravenous infusion, and was conducted over a period of 10 minutes.
During each in-clinic stay, blood samples were collected at specified times both prior to and following dose administration for the determination of pharmacodynamic parameters of non-esterified fatty acids (NEFA), glycerol, glucose and IGF-1. For the purposes of safety monitoring, the physical condition (physical examination, blood pressure, pulse, temperature and general well being) of the subjects was monitored both prior to and at specified intervals during each study period. ECG monitoring was performed prior to the infusion, at the end of the infusion and at specified times following the end of the infusion. Blood samples were also collected for assessment of haematological and biochemical parameters. Subjects were released from the clinic following the 24 hour post-dose blood sample and physical examination. Subjects returned to the clinic for the following period after a 7-day washout period. Within 14 days of the final period (Period 4), an Exit Evaluation was performed, involving the following assessments: physical examination (including ECG monitoring), body height and weight determination, vital sign measurements, questions regarding adverse events, collection of blood samples for the assessment of haematological and biochemical parameters, and collection of a urine sample for urinalysis and microscopy. A further 5 mL blood sample was collected and the serum stored for possible antibody analysis to be done at a later date.
Treatment A: A single dose of 25 μg/kg AOD9604 administered intravenously via an infusion pump over a 10 minute period.
Treatment B: A single dose of 50 μg/kg AOD9604 administered intravenously via an infusion pump over a 10 minute period.
Treatment C: A single dose of 100 μg/kg AOD9604 administered intravenously via an infusion pump over a 10 minute period.
Each subject received one of each of three doses of the active study drug, AOD9604 (25, 50, and 100 μg/kg) on three occasions and a placebo on one occasion. The doses were administered as intravenous infusions of 10 minute duration with a wash-out period of 7 days between each consecutive treatment. Subjects were not permitted to eat or drink anything, except for water, for at least 10 hours prior to and 2 hours following administration of the dose. Meals were timed in relation to the end of dosing, as follows: Snack (2 hours and 5 minutes), Lunch (4 hours and 5 minutes), Dinner (10 hours and 5 minutes) and Snack (13 hours and 5 minutes).

[6] = tested on: C57Bl/6J (Ob/Ob) mouse; details: Australian patent No. 693478; cited from earlier work
[7] = single iv infusion 25, 50 or 100 μg/kg, only in periods with active drug, none with placebo

Substance: Intact growth hormone: intact growth hormone, the full hormone from which the C-terminal fragments derive
- effect on mood [1]: positive effects on mood

Substance: Tyr-hGH 177-191 [AOD9604]
- mood, Nottingham Health Profile questionnaire, response by dose ([2]; 30 mg single oral dose, lower is happier): greatest response
- non-esterified fatty acid (NEFA) levels compared to placebo ([2]; 1, 2 and 4 hours after AOD9604 27.6 mg oral, p<0.05): statistically significantly increased
- NEFA response ([2]; AOD9604 55.2 mg oral, compared with 27.6 mg): lower response
- mood, Nottingham Health Profile questionnaire ([2]; before dose vs 7 days after dose, all single oral doses (10, 30, 60 mg), placebo worsened): improvement of mood
- tolerability ([2]; over the oral dose range 10-60 mg single dose): well tolerated
- incidence of adverse events, active vs placebo ([2]; single oral doses): no observable trends
- vital signs, ECG, physical examination and clinical laboratory assessments ([2]; single oral doses): no clinically significant changes
- pharmacodynamic response at 50 μg/kg ([3]; 50 μg/kg): a response had been shown
- pharmacodynamic response at high dose ([3]; dose increased to 200 μg/kg and higher): response diminished
- pharmacodynamic response ([3]; iv dose range 25-400 μg/kg): A pharmacodynamic response was seen
- gastrointestinal adverse effects ([4]; 60 mg dose group, particularly in the hour after dose): increase in mild gastrointestinal effects
- significance of body weight effect in subgroup ([4]; age 35+ and BMI 35+ group, p<0.05): statistically significant
- SF-36 mental aggregate relative to placebo, all doses ([4]; at 8 days vs day 0, 10, 30, 60 mg/day oral for 7 days): improvement in the mental aggregate for all doses relative to placebo
- significance of SF-36 improvement at 10 mg ([4]; at 8 days, 10 mg/day oral, p<0.05): statistically significant
- SF-36 physical aggregate relative to placebo ([4]; at 14 days, dose 60 mg/day, only aggregate/dose worse than placebo): worse result that the placebo
- SF-36 mental aggregate scores relative to placebo, 10 mg ([4]; day 8, 10 mg/day oral): improvement
- SF-36 mental aggregate scores relative to placebo, 30 mg and 60 mg ([4]; day 8, 30 mg and 60 mg/day oral): worsening
- body weight difference (anti-obesity effect) ([4]; morning of day 1 vs day 8, bell-shaped dose response): clear activity
- incidence of adverse events, active vs placebo ([4]; multiple oral doses, 7 days): no observable trends
- vital signs, ECG, physical examination and clinical laboratory assessments ([4]; multiple oral doses, 7 days): no clinically significant changes
- mean serum NEFA compared to placebo ([5]; 2 hours post dose, all AOD9604 doses (25, 50, 100 μg/kg iv)): rose more
- severity of euphoria ([5]; after a single iv dose of active drug): mild to moderate euphoria; also recorded: mild or moderate euphoria
- weight loss in older patients compared to placebo ([5]; aged 35+ (N=13), highest dose 100 μg/kg iv): highly significant weight loss
- body weight change compared to placebo ([5]; measured 1 week after each iv dose): lower in the treated groups than in those receiving placebo
- significance of NEFA effect in older patients ([5]; patients aged 35+, 2 hours post dose): highly significant
- subjects experiencing euphoria (number of subjects) [5, 7]: 5/23
- subjects experiencing euphoria (percentage) [5, 7]: 21.7%

Substance: hGH 177-191: synthetic peptide corresponding to amino acid residues 177-191 of the human growth hormone sequence (LRIVQCRSVEGSCGF; UniProt P01241 203-217, looked up, fragment)
- body weight gain and adipose tissue mass [6]: reduce body weight gain and adipose tissue mass
